Data published in patent publication US7288256B1, “T cell epitopes of the major allergens from dermatophagoides (house dust mite)” (Merck Patent GmbH, priority 1991, dated 2007).
Residues, ends and D or L forms follow the SMILES beside them.

Legend:
[1] = pH-stability profile of candidate peptides (percent degradant peak area by HPLC); settings: for stability (in words): single peptide, aqueous buffer, pH 6 to pH 8, development of DPII-22.14; for solution stability in equal concentration combination: 3, 2 and 1 mg/ml per peptide, 24 hours at about 5° C. and about 22° C., common window within pH 6 to pH 8
Description: The concentration of filtered peptide solutions was determined by HPLC analysis. In this experiment, the solubility of peptide at each pH is defined as the amount of peptide remaining in solution after filtration through a membrane filter having a 0.2 micrometer pore size. The extent of degradation of peptides was estimated by calculating the percent of total degradant peak area over the total peak area.

[2] = pH-solubility profile of candidate peptides (HPLC of filtrate); format: physicochemical; settings: for solubility (in words, against the superior solubility standard of 3 mg/ml): development of DPII-22.14 from DpII-22; for solubility thermodynamic at 24 h: at a pH in the pH range of pH 6 to pH 8, 50 mM sodium phosphate, about 22° C.
Description: Stock solution A: 0.66 g […] of monobasic sodium phosphate monohydrate U.S.P. and 50 mg EDTA disodium dihydrate, U.S.P. were dissolved in 100 mL of WFI. The solution was filtered through a 0.2 micron filter
Stock solution B: 0.71 g […] of dibasic sodium phosphate U.S.P. were disolved in 100 ml WFI. The solution was filtered through a 0.2 micron filter.
Dispersions A and B were sonicated for 2 minutes for good homogeneity. A small volume was pipetted from each dispersion into a labeled eppendoff vial according to the following volume ratio:
The resultant solutions/suspensions were stored in the dark at about 22° C.±2 for 24 hours without agitation. The solutions were filtered and filtrates were analyzed for pH and peptide concentration.

Row | SMILES | stability (in words) [1] | solubility (in words, against the superior solubility standard of 3 mg/ml) [2] | stability (in words) ([1]; listed as QLEAVFEANQNTKTAKIEIKASIDGLEV) | solution stability in equal concentration combination [1] | solubility thermodynamic at 24 h [2] [µg/mL]
1 | CC[C@H](C)[C@H](NC(=O)[C@H](CO)NC(=O)[C@H](C)NC(=O)[C@H](CCCCN)NC(=O)[C@@H](NC(=O)[C@H](CCC(=O)O)NC(=O)[C@@H](NC(=O)[C@H](CCCCN)NC(=O)[C@H](C)NC(=O)[C@@H](NC(=O)[C@H](CCCCN)NC(=O)[C@@H](NC(=O)[C@H](CC(N)=O)NC(=O)[C@H](CCC(N)=O)NC(=O)[C@H](CC(N)=O)NC(=O)[C@H](C)NC(=O)[C@H](CCC(=O)O)NC(=O)[C@H](Cc1ccccc1)NC(=O)[C@@H](NC(=O)[C@H](C)NC(=O)[C@H](CCC(=O)O)NC(=O)[C@H](CC(C)C)NC(=O)[C@H](CCC(N)=O)NC(=O)[C@@H](N)CCCCN)C(C)C)[C@@H](C)O)[C@@H](C)O)[C@@H](C)CC)[C@@H](C)CC)C(=O)N[C@@H](CC(=O)O)C(=O)NCC(=O)N[C@@H](CC(C)C)C(=O)N[C@@H](CCC(=O)O)C(=O)N[C@H](C(=O)N[C@@H](CCCCN)C(=O)O)C(C)C [DP II-22.2] (H-KQLEAVFEANQNTKTAKIEIKASIDGLEVK-OH) | stability improved substantially | solubility did not reach the standard |  |  | 
2 | CC[C@H](C)[C@H](NC(=O)[C@H](CCC(=O)O)NC(=O)[C@@H](NC(=O)[C@H](CCCCN)NC(=O)[C@H](C)NC(=O)[C@@H](NC(=O)[C@H](CCCCN)NC(=O)[C@@H](NC(=O)[C@H](CC(N)=O)NC(=O)[C@H](CCC(N)=O)NC(=O)[C@H](CC(N)=O)NC(=O)[C@H](C)NC(=O)[C@H](CCC(=O)O)NC(=O)[C@H](Cc1ccccc1)NC(=O)[C@@H](NC(=O)[C@H](C)NC(=O)[C@H](CCC(=O)O)NC(=O)[C@H](CC(C)C)NC(=O)[C@H](CCC(N)=O)NC(=O)[C@H](CCCCN)NC(=O)[C@@H](N)CC(=O)O)C(C)C)[C@@H](C)O)[C@@H](C)O)[C@@H](C)CC)C(=O)N[C@@H](CCCCN)C(=O)N[C@@H](C)C(=O)N[C@@H](CO)C(=O)N[C@H](C(=O)N[C@@H](CC(=O)O)C(=O)N[C@@H](CCC(=O)O)C(=O)O)[C@@H](C)CC [DP II-22.5] (H-DKQLEAVFEANQNTKTAKIEIKASIDE-OH; N-terminus and C-terminus assumed) |  | very soluble |  |  | 
3 | CC[C@H](C)[C@H](NC(=O)[C@H](CO)NC(=O)[C@H](C)NC(=O)[C@H](CCCCN)NC(=O)[C@@H](NC(=O)[C@H](CCC(=O)O)NC(=O)[C@@H](NC(=O)[C@H](CCCCN)NC(=O)[C@H](C)NC(=O)[C@@H](NC(=O)[C@H](CCCCN)NC(=O)[C@@H](NC(=O)[C@H](CC(N)=O)NC(=O)[C@H](CCC(N)=O)NC(=O)[C@H](CC(N)=O)NC(=O)[C@H](C)NC(=O)[C@H](CCC(=O)O)NC(=O)[C@H](Cc1ccccc1)NC(=O)[C@@H](NC(=O)[C@H](C)NC(=O)[C@H](CCC(=O)O)NC(=O)[C@H](CC(C)C)NC(=O)[C@@H](N)CCC(N)=O)C(C)C)[C@@H](C)O)[C@@H](C)O)[C@@H](C)CC)[C@@H](C)CC)C(=O)N[C@@H](CC(=O)O)C(=O)NCC(=O)N[C@@H](CC(C)C)C(=O)N[C@@H](CCC(=O)O)C(=O)N[C@H](C(=O)O)C(C)C [DP II-22] (H-QLEAVFEANQNTKTAKIEIKASIDGLEV-OH; N-terminus and C-terminus assumed) | stable | did not meet the “superior solubility” requirement of 3 mg/ml | nor did it meet the stability requirement |  | 
4 | CC(C)C[C@H](NC(=O)[C@H](CCC(=O)O)NC(=O)[C@H](CCCCN)NC(=O)[C@@H](N)CC(=O)O)C(=O)N[C@@H](CCC(=O)O)C(=O)N[C@@H](C)C(=O)N[C@H](C(=O)N[C@@H](Cc1ccccc1)C(=O)N[C@@H](CCC(=O)O)C(=O)N[C@@H](C)C(=O)N[C@@H](CC(N)=O)C(=O)N[C@@H](CCC(N)=O)C(=O)N[C@@H](CC(N)=O)C(=O)N[C@H](C(=O)N[C@@H](CCCCN)C(=O)N[C@H](C(=O)N[C@@H](C)C(=O)N[C@@H](CCCCN)C(=O)N[C@@H](C)C(=O)N[C@@H](CCC(=O)O)C(=O)O)[C@@H](C)O)[C@@H](C)O)C(C)C [DP II-22.14] (H-DKELEAVFEANQNTKTAKAE-OH; N-terminus and C-terminus assumed) |  |  |  | acceptable solution stability | > 3000
5 | CC[C@H](C)[C@H](NC(=O)[C@H](CCC(=O)O)NC(=O)[C@H](C)NC(=O)[C@@H]1CCCN1C(=O)[C@H](C)NC(=O)[C@H](CC(N)=O)NC(=O)CNC(=O)[C@H](CC(N)=O)NC(=O)[C@@H](NC(=O)[C@@H](N)CO)[C@@H](C)CC)C(=O)N[C@@H](CC(=O)O)C(=O)N[C@@H](CC(C)C)C(=O)N[C@@H](CCCNC(=N)N)C(=O)N[C@@H](CCC(N)=O)C(=O)N[C@@H](CCSC)C(=O)N[C@@H](CCCNC(=N)N)C(=O)N[C@H](C(=O)N[C@H](C(=O)N[C@H](C(=O)N1CCC[C@H]1C(=O)N[C@H](C(=O)N[C@@H](CCCNC(=N)N)C(=O)N[C@@H](CCSC)C(=O)N[C@@H](CCC(N)=O)C(=O)O)[C@@H](C)CC)[C@@H](C)O)C(C)C)[C@@H](C)O [DP I-21.2] (H-SINGNAPAEIDLRQMRTVTPIRMQ-OH; N-terminus and C-terminus assumed) |  |  |  | acceptable solution stability | > 3000
6 | CC[C@H](C)[C@H](NC(=O)[C@H](C)NC(=O)[C@H](CS)NC(=O)[C@H](C)NC(=O)[C@H](CC(C)C)NC(=O)[C@@H](NC(=O)CNC(=O)[C@H](CC(=O)O)NC(=O)[C@H](CC(=O)O)NC(=O)CNC(=O)[C@H](CCSC)NC(=O)[C@@H](NC(=O)[C@H](CCCCN)NC(=O)[C@@H](NC(=O)[C@@H](NC(=O)[C@H](CCC(=O)O)NC(=O)[C@H](CCC(=O)O)NC(=O)[C@@H](N)CC(=O)O)[C@@H](C)O)C(C)C)C(C)C)C(C)C)C(=O)N[C@@H](C)C(=O)N[C@H](C(=O)N[C@@H](Cc1c[nH]cn1)C(=O)N[C@@H](C)C(=O)N[C@@H](CCCCN)C(=O)N[C@H](C(=O)N[C@@H](CCCNC(=N)N)C(=O)N[C@@H](CC(=O)O)C(=O)N[C@@H](CCC(=O)O)C(=O)N[C@@H](CCC(=O)O)C(=O)O)[C@@H](C)CC)[C@@H](C)O [DP II-25.15] (H-DEETVKVMGDDGVLACAIATHAKIRDEE-OH; N-terminus and C-terminus assumed) |  |  |  | acceptable solution stability | > 3000
7 | CC(C)C[C@H](NC(=O)[C@H](Cc1ccc(O)cc1)NC(=O)[C@H](C)NC(=O)[C@H](CO)NC(=O)[C@H](CCC(=O)O)NC(=O)[C@@H](NC(=O)[C@H](C)NC(=O)[C@H](C)NC(=O)[C@@H](N)C(C)C)[C@@H](C)O)C(=O)N[C@@H](C)C(=O)N[C@@H](Cc1ccc(O)cc1)C(=O)N[C@@H](CCCNC(=N)N)C(=O)N[C@@H](CC(N)=O)C(=O)N[C@H](C(=O)N[C@@H](CO)C(=O)N[C@@H](CC(C)C)C(=O)N[C@@H](CC(=O)O)C(=O)N[C@@H](CC(C)C)C(=O)N[C@@H](CO)C(=O)N[C@@H](CCC(=O)O)C(=O)N[C@@H](CCC(N)=O)C(=O)N[C@@H](CCC(=O)O)C(=O)N[C@@H](CC(C)C)C(=O)N[C@H](C(=O)N[C@@H](CC(=O)O)C(=O)O)C(C)C)[C@@H](C)O [DF I-22.2] (H-VAATESAYLAYRNTSLDLSEQELVD-OH; N-terminus and C-terminus assumed) |  |  |  | acceptable solution stability | > 3000
8 | CC(C)[C@H](NC(=O)CNC(=O)[C@H](CCC(=O)O)NC(=O)[C@H](CCC(=O)O)NC(=O)[C@@H](N)CC(=O)O)C(=O)N[C@H](C(=O)N[C@@H](CCC(N)=O)C(=O)N[C@@H](CCC(=O)O)C(=O)N[C@@H](CO)C(=O)N[C@@H](Cc1ccc(O)cc1)C(=O)N[C@@H](Cc1ccc(O)cc1)C(=O)N[C@@H](CCCNC(=N)N)C(=O)N[C@@H](Cc1ccc(O)cc1)C(=O)N[C@H](C(=O)N[C@@H](C)C(=O)N[C@@H](CCCNC(=N)N)C(=O)N[C@@H](CCC(=O)O)C(=O)N[C@@H](CCC(N)=O)C(=O)N[C@@H](CO)C(=O)N[C@@H](CS)C(=O)N[C@@H](CCCNC(=N)N)C(=O)N[C@@H](CCCNC(=N)N)C(=O)N1CCC[C@H]1C(=O)N[C@@H](CC(N)=O)C(=O)N[C@@H](C)C(=O)N[C@@H](CCC(=O)O)C(=O)O)C(C)C)C(C)C [DP I-23.31] (H-DEEGVVQESYYRYVAREQSCRRPNAE-OH; N-terminus and C-terminus assumed) |  |  |  | acceptable solution stability | > 3000
